Results: the NIST ThermoML archive (doi:10.1021/je050050p)
Numbers after ± are expanded uncertainties.

Assay: xn = mol fraction of the nth substance listed
Conditions: Liquid, Vibrating tube method

CN(C)C=O [dimethylformamide] + O=C=O
Conditions	mass density [kg/m3]
332.98 K, 14003 kPa, x2 = 0.4268	937.07 ± 0.41
332.98 K, 14011 kPa, x2 = 0.9311	761.83 ± 0.54
332.98 K, 15006 kPa, x2 = 0.4268	938.28 ± 0.41
332.98 K, 15009 kPa, x2 = 0.9311	776.41 ± 0.52
332.98 K, 16024 kPa, x2 = 0.4268	939.46 ± 0.41
332.98 K, 16030 kPa, x2 = 0.9311	789.22 ± 0.51
332.98 K, 17017 kPa, x2 = 0.9311	800.11 ± 0.5
332.98 K, 17036 kPa, x2 = 0.4268	940.67 ± 0.41
332.98 K, 18002 kPa, x2 = 0.9311	809.93 ± 0.49
332.98 K, 18017 kPa, x2 = 0.4268	941.85 ± 0.41
332.98 K, 19025 kPa, x2 = 0.4268	943 ± 0.41
332.98 K, 19031 kPa, x2 = 0.9311	819.29 ± 0.48
332.98 K, 20004 kPa, x2 = 0.4268	944.1 ± 0.41
332.98 K, 20025 kPa, x2 = 0.9311	827.57 ± 0.48
332.98 K, 21001 kPa, x2 = 0.4268	945.19 ± 0.41
332.98 K, 21030 kPa, x2 = 0.9311	835.37 ± 0.47
332.98 K, 21993 kPa, x2 = 0.4268	946.33 ± 0.41
332.98 K, 21994 kPa, x2 = 0.9311	842.35 ± 0.47
332.98 K, 22998 kPa, x2 = 0.9311	849.15 ± 0.47
332.98 K, 23015 kPa, x2 = 0.4268	947.45 ± 0.41
332.98 K, 24024 kPa, x2 = 0.9311	855.75 ± 0.46
332.98 K, 24114 kPa, x2 = 0.4268	948.62 ± 0.41
332.98 K, 25011 kPa, x2 = 0.9311	861.78 ± 0.46
332.98 K, 25061 kPa, x2 = 0.4268	949.68 ± 0.41
332.99 K, 6007 kPa, x2 = 0.2876	926.13 ± 0.41
332.99 K, 6998 kPa, x2 = 0.2876	927.15 ± 0.41
332.99 K, 7991 kPa, x2 = 0.2876	928.18 ± 0.41
332.99 K, 9011 kPa, x2 = 0.4461	930.78 ± 0.41
332.99 K, 9021 kPa, x2 = 0.2876	929.22 ± 0.41
332.99 K, 9993 kPa, x2 = 0.4461	931.95 ± 0.41
332.99 K, 10024 kPa, x2 = 0.2876	930.23 ± 0.41
332.99 K, 11006 kPa, x2 = 0.2876	931.19 ± 0.41
332.99 K, 11013 kPa, x2 = 0.4461	933.65 ± 0.41
332.99 K, 12003 kPa, x2 = 0.4461	934.9 ± 0.41
332.99 K, 12020 kPa, x2 = 0.2876	932.19 ± 0.41
332.99 K, 13012 kPa, x2 = 0.4461	936.18 ± 0.41
332.99 K, 13024 kPa, x2 = 0.2876	933.16 ± 0.41
332.99 K, 13991 kPa, x2 = 0.4461	937.43 ± 0.41
332.99 K, 14028 kPa, x2 = 0.2876	934.12 ± 0.41
332.99 K, 15009 kPa, x2 = 0.4461	938.71 ± 0.41
332.99 K, 15010 kPa, x2 = 0.2876	935.07 ± 0.41
332.99 K, 16010 kPa, x2 = 0.2876	936.01 ± 0.41
332.99 K, 16010 kPa, x2 = 0.4461	939.93 ± 0.41
332.99 K, 17001 kPa, x2 = 0.4461	941.16 ± 0.41
332.99 K, 17003 kPa, x2 = 0.2876	936.96 ± 0.41
332.99 K, 17994 kPa, x2 = 0.4461	942.35 ± 0.41
332.99 K, 18005 kPa, x2 = 0.2876	937.87 ± 0.41
332.99 K, 18988 kPa, x2 = 0.4461	943.52 ± 0.41
332.99 K, 19008 kPa, x2 = 0.2876	938.78 ± 0.41
332.99 K, 20001 kPa, x2 = 0.4461	944.69 ± 0.41
332.99 K, 20007 kPa, x2 = 0.2876	939.69 ± 0.41
332.99 K, 20995 kPa, x2 = 0.4461	945.88 ± 0.41
332.99 K, 21004 kPa, x2 = 0.2876	940.6 ± 0.41
332.99 K, 21990 kPa, x2 = 0.2876	941.48 ± 0.41
332.99 K, 21998 kPa, x2 = 0.4461	947.03 ± 0.41
332.99 K, 23023 kPa, x2 = 0.4461	948.19 ± 0.41
332.99 K, 23037 kPa, x2 = 0.2876	942.42 ± 0.41
332.99 K, 23982 kPa, x2 = 0.4461	949.27 ± 0.41
332.99 K, 24000 kPa, x2 = 0.2876	943.28 ± 0.41
332.99 K, 24996 kPa, x2 = 0.2876	944.13 ± 0.41
332.99 K, 25021 kPa, x2 = 0.4461	950.44 ± 0.41
333 K, 7019 kPa, x2 = 0.4502	928.11 ± 0.41
333 K, 8001 kPa, x2 = 0.4502	929.45 ± 0.41
333 K, 8029 kPa, x2 = 0.4068	930.01 ± 0.41
333 K, 9015 kPa, x2 = 0.4502	930.81 ± 0.41
333 K, 9016 kPa, x2 = 0.4068	931.23 ± 0.41
333 K, 10008 kPa, x2 = 0.4068	932.42 ± 0.41
333 K, 10013 kPa, x2 = 0.4502	932.14 ± 0.41
333 K, 11006 kPa, x2 = 0.4502	933.42 ± 0.41
333 K, 11025 kPa, x2 = 0.4068	933.65 ± 0.41
333 K, 12004 kPa, x2 = 0.4502	934.74 ± 0.41
333 K, 12006 kPa, x2 = 0.4068	934.81 ± 0.41
333 K, 13019 kPa, x2 = 0.4068	936.04 ± 0.41
333 K, 13021 kPa, x2 = 0.4502	936.04 ± 0.41
333 K, 14010 kPa, x2 = 0.4068	937.15 ± 0.41
333 K, 14019 kPa, x2 = 0.4502	937.31 ± 0.41
333 K, 15001 kPa, x2 = 0.4502	938.54 ± 0.41
333 K, 15002 kPa, x2 = 0.4068	938.28 ± 0.41
333 K, 16010 kPa, x2 = 0.4068	939.41 ± 0.41
333 K, 16014 kPa, x2 = 0.4502	939.78 ± 0.41
333 K, 16998 kPa, x2 = 0.4068	940.54 ± 0.41
333 K, 17013 kPa, x2 = 0.4502	941.01 ± 0.41
333 K, 18013 kPa, x2 = 0.4068	941.67 ± 0.41
